Literature values in patent US20050203105A1, “Composition and method for controlling alcohol-induced facial flushing in susceptible humans” (priority 2003, published 2005).
Read-outs that look alike come from different tables or passages of the source.

Experiments:
[1] = for time to peak plasma levels: oral
QT interval = conditions: in vivo
H1 receptor = H1 receptor (Homo sapiens, UniProt P35367)
muscarinic receptors = system: muscarinic receptors; set-up: key: +++++ = Very high; +++ = high; ++ = moderate; + = low; ± = low to none
[2] = system: flushing responses to red wine, chocolate and hot water; conditions: one patient with carcinoid syndrome; two weeks of oral prior treatment
alcohol-induced flushing [3] = conditions: for rise in skin oxygen tension after sherry: oral, 30 minutes before 30-50 ml of sherry
[4] = for Half-life: increased in renal impairment (cimetidine: also hepatic impairment and the elderly); for Elimination, Urine, Unchanged, Oral / effect of food on absorption: oral
[5] = given with an MAOI
[6] = system: potassium rectifier currents
alcohol-induced flushing [7] = conditions: for Facial flushing: 0.64 gm orally one hour before ethanol
[8] = dose range of 10 to 40 mg
[9] = system: alcohol-induced rosacea flushing; conditions: subcutaneous pretreatment; 360 ml of 6% ethanol; patients with rosacea
ethanol intoxication = conditions: intravenous

H1 receptor, sequence (P35367 whole entry): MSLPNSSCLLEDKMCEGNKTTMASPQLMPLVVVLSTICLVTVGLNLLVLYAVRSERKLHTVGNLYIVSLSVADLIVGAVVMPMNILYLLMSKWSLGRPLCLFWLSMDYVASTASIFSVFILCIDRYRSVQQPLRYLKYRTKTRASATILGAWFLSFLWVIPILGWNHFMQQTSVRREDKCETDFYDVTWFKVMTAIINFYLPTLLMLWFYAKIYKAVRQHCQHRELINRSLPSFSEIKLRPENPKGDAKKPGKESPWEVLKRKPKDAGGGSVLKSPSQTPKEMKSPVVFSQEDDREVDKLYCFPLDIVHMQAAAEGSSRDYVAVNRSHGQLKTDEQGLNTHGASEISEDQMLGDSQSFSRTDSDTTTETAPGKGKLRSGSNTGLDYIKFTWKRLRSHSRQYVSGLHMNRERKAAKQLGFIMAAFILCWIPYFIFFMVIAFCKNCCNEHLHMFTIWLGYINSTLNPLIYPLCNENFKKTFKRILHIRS

Q: Which “half-life, distribution phase” value ([1]; biphasic) does the source give for COc1ccc(CCN2CCC(Nc3nc4ccccc4n3Cc3ccc(F)cc3)CC2)cc1 [Astemizole] here?
A: The value was 20 h.

Q: And the protein bound ([1]; in vivo)?
A: Its protein bound is 96.7%.

Q: And the “time to peak plasma levels” value [1]?
A: The value was no more than 1 h.

Q: What about the “reduction of absorption when taken with food” value ([1]; with food) of the same compound?
A: The value was 60%.

Q: What about the “QT prolongation, ventricular arrhythmias, torsade de pointes” value (QT interval) of the same compound?
A: Its value is “can cause QT interval prolongation/ventricular arrhythmias”.

Q: For CN1CCC(=C2c3ccccc3CCc3cccnc32)CC1 [Azatadine], which Antihistaminic activity (H1 receptor) is on record?
A: Its Antihistaminic activity is “++”.

Q: What about the Anticholinergic activity (muscarinic receptors) of the same compound?
A: Its Anticholinergic activity is “++”.

Q: With CN(C)CCC(c1ccc(Br)cc1)c1ccccn1 (centres unmarked) [Brompheniramine] as the compound, how does the Antihistaminic activity (H1 receptor) read?
A: Its Antihistaminic activity is “+++”.

Q: And the Anticholinergic activity (muscarinic receptors)?
A: The Anticholinergic activity was “++”.

Q: Which Antihistaminic activity (H1 receptor) does the source give for CN(C)CCOC(c1ccc(Cl)cc1)c1ccccn1 (centres unmarked) [Carbinoxamine] here?
A: Its Antihistaminic activity is “+ to ++”.

Q: And the Anticholinergic activity (muscarinic receptors)?
A: The Anticholinergic activity was “+++”.

Q: Which “flushing response to red wine, chocolate and hot water challenges” value [2] does the source give for CN(C)CCC(c1ccc(Cl)cc1)c1ccccn1 (centres unmarked) [Chlorpheniramine] here?
A: The value was “did not affect the flushing response”.

Q: What about the “sedative action of absorbed alcohol” value (alcohol-induced flushing [3]; in vivo) of the same compound?
A: The value was “potentiates the sedative action of the alcohol absorbed”.

Q: And the “rise in skin oxygen tension after sherry” value (alcohol-induced flushing [3])?
A: The value was “did not affect the rise in skin oxygen tension”.

Q: What does the source list for CN/C(=N/CCSCc1nc[nH]c1C)NC#N [Cimetidine]?
A: Peak Plasma Concentration ([4]; 300 mg dose, dose dependent): 0.7 to 3.2 µg/mL; Elimination, Urine, Unchanged, IV ([4]; IV): 75%; Peak Plasma Concentration ([4]; IV): (3.5-7.5 IV) mcg/ml; Bioavailability ([4]; in vivo): 60-70%; Elimination, Metabolized ([4]; in vivo): 30-40%; Protein Binding ([4]; in vivo): 13-25%; Time to Peak Plasma Concentration ([4]; in vivo): 0.75 to 1.5 h; Volume of Distribution ([4]; in vivo): 0.8 to 1.2 L/kg; removal by hemodialysis or peritoneal dialysis ([4]; in vivo): not significantly removed by hemodialysis or peritoneal dialysis; Half-life [4]: ≈2^2 hrs; Elimination, Urine, Unchanged, Oral [4]: 48%; effect of food on absorption [4]: unaffected by food; flushing response to red wine, chocolate and hot water challenges [2]: blocked the flushing responses to red wine and chocolate, but not to hot water; rise in skin oxygen tension after sherry (alcohol-induced flushing [3]): did noticeably reduce the increase in oxygen concentration; effect on hepatic oxidative metabolism (cytochrome P450 enzymes): inhibits hepatic oxidative metabolism by most cytochrome P450 enzymes

Q: Which “interaction with an MAOI” value [5] does the source give for CN(C)CC[C@@H](c1ccc(Cl)cc1)c1ccccn1 [Dexchlorpheniramine] here?
A: Its value is “may cause severe hypotension”.

Q: For NC(N)=Nc1nc(CSCCC(N)=NS(N)(=O)=O)cs1 [Famotidine], which “Peak Plasma Concentration” value ([4]; 40 mg dose, dose dependent) is on record?
A: Its value is 0.076 to 0.1 µg/mL.

Q: And the “Elimination, Urine, Unchanged, IV” value ([4]; IV)?
A: Its value is 65-70%.

Q: What about the Bioavailability ([4]; in vivo) of the same compound?
A: Its Bioavailability is 40-45%.

Q: What about the “Elimination, Metabolized” value ([4]; in vivo) of the same compound?
A: Its value is 30-35%.

Q: And the “Protein Binding” value ([4]; in vivo)?
A: Its value is 15-20%.

Q: And the “Time to Peak Plasma Concentration” value ([4]; in vivo)?
A: The value was 1 to 3 h.

Q: And the “Volume of Distribution” value ([4]; in vivo)?
A: The value was 1.1 to 1.4 L/kg.

Q: What about the Half-life [4] of the same compound?
A: The Half-life was 2.5-3.5^3 hrs.

Q: What about the “Elimination, Urine, Unchanged, Oral” value [4] of the same compound?
A: Its value is 25-30%.

Q: And the “effect on hepatic oxidative metabolism” value (cytochrome P450 enzymes)?
A: Its value is “do not seem to interfere with hepatic oxidation”.

Q: For CCOC(=O)N1CCC(=C2c3ccc(Cl)cc3CCc3cccnc32)CC1 [Loratadine, ethyl 4-(8-chloro-5,6-dihydro-11H-benzo[5,6]cyclohepta[1,2-b]pyridin-11-ylidene)-1-piperidinecarboxylate], which potassium rectifier currents [6] is on record?
A: Its potassium rectifier currents is “inhibit the potassium rectifier currents”.

Q: For CN1CCC(CN2c3ccccc3Sc3ccccc32)C1 (centres unmarked) [Methdilazine], which Antihistaminic activity (H1 receptor) is on record?
A: The Antihistaminic activity was “++ to +++”.

Q: What about the Anticholinergic activity (muscarinic receptors) of the same compound?
A: The Anticholinergic activity was “+++”.

Q: With CNC(=C[N+](=O)[O-])NCCSCc1csc(CN(C)C)n1 [Nizatidine] as the compound, how does the “Peak Plasma Concentration” value ([4]; 150 mg dose, dose dependent) read?
A: Its value is 0.7 to 1.8 µg/mL.

Q: And the “Peak Plasma Concentration” value ([4]; 300 mg dose, dose dependent)?
A: The value was 1.4 to 3.6 µg/mL.

Q: And the “Plasma concentrations 12 hours after administration” value ([4]; 12 hours after administration)?
A: The value was “less than 10 mcg/L”.

Q: And the Bioavailability ([4]; in vivo)?
A: The Bioavailability was greater than 90%.

Q: And the “Elimination, Metabolized” value ([4]; in vivo)?
A: The value was less than 18%.

Q: And the “Protein Binding” value ([4]; in vivo)?
A: The value was “≈35%”.

Q: And the “Time to Peak Plasma Concentration” value ([4]; in vivo)?
A: The value was 0.5 to 3 h.

Q: What about the “Volume of Distribution” value ([4]; in vivo) of the same compound?
A: Its value is 0.8 to 1.5 L/kg.

Q: And the Half-life [4]?
A: Its Half-life is 1-2^3 hrs.

Q: What about the “Elimination, Urine, Unchanged, Oral” value [4] of the same compound?
A: The value was 60%.

Q: What does the source list for CN1CCC2=C(C1)C(c1ccccc1)c1ccccc12 (centres unmarked) [Phenindamine]?
A: Antihistaminic activity (H1 receptor): ++; Anticholinergic activity (muscarinic receptors): ++

Q: Which results are given for CNC(=C[N+](=O)[O-])NCCSCc1ccc(CN(C)C)o1 [Ranitidine]?
A: Bioavailability ([4]; IM): (90-100 IM) %; Peak Plasma Concentration ([4]; IM): (0.58 IM) mcg/ml; Time to Peak Plasma Concentration ([4]; IM): (0.25 IM) hrs; Elimination, Urine, Unchanged, IV ([4]; IV): 68-79%; Bioavailability ([4]; in vivo): 50-160%; Elimination, Metabolized ([4]; in vivo): <10%; Protein Binding ([4]; in vivo): 15%; Time to Peak Plasma Concentration ([4]; in vivo): 1 to 3 h; Volume of Distribution ([4]; in vivo): 1.2 to 1.9 L/kg; Half-life [4]: 2-3^3 hrs; Peak Plasma Concentration ([4]; no dose given, dose dependent): 0.44 to 0.55 µg/mL; Elimination, Urine, Unchanged, Oral [4]: 30-35%; effect of food on absorption [4]: not significantly impaired by the administration of food; effect on hepatic oxidative metabolism (cytochrome P450 enzymes): do not seem to interfere with hepatic oxidation

Q: For CC(C)(C)c1ccc(C(O)CCCN2CCC(C(O)(c3ccccc3)c3ccccc3)CC2)cc1 (centres unmarked) [Terfenadine], which “dose eliminated via the urine” value ([1]; in vivo) is on record?
A: Its value is 40%.

Q: What about the elimination half-life ([1]; in vivo) of the same compound?
A: Its elimination half-life is 20 h.

Q: What about the “fecal excretion of the dose” value ([1]; in vivo) of the same compound?
A: Its value is 60%.

Q: And the “time to peak plasma levels” value [1]?
A: Its value is 2 h.

Q: What about the “single overdose associated with serious cardiovascular adverse events” value (QT interval) of the same compound?
A: The value was no less than 360 mg.

Q: With CC(CN(C)C)CN1c2ccccc2Sc2ccccc21 (centres unmarked) [Trimeprazine] as the compound, how does the Antihistaminic activity (H1 receptor) read?
A: The Antihistaminic activity was “++ to +++”.

Q: What about the Anticholinergic activity (muscarinic receptors) of the same compound?
A: The Anticholinergic activity was “+++”.

Q: Which results are given for CN(C)CCN(Cc1ccccc1)c1ccccn1 [Tripelennamine]?
A: Antihistaminic activity (H1 receptor): + to ++; Anticholinergic activity (muscarinic receptors): ±

Q: Which Antihistaminic activity (H1 receptor) does the source give for Cc1ccc(/C(=C\CN2CCCC2)c2ccccn2)cc1 [Triprolidine] here?
A: The Antihistaminic activity was “++ to +++”.

Q: What about the Anticholinergic activity (muscarinic receptors) of the same compound?
A: Its Anticholinergic activity is “++”.

Q: What does the source list for CC(=O)Oc1ccccc1C(=O)O [aspirin, acetylsalicylic acid]?
A: Body sway (alcohol-induced flushing [7]; both groups of subjects): reduced; alcohol induced increase in heart rate (alcohol-induced flushing [7]; flushing group): reduced; Facial flushing (alcohol-induced flushing [7]; flushing group): markedly reduced; Facial flushing (alcohol-induced flushing [7]; non-flushing Occidentals): slightly increased

Q: Which “flushing response to red wine, chocolate and hot water challenges” value [2] does the source give for Clc1cccc(Cl)c1N=C1NCCN1 [clonidine] here?
A: Its value is “blocked the flushing responses to red wine and chocolate, but not to hot water”.

Q: Which “dose dependence of pharmacokinetics” value [8] does the source give for Clc1ccc2c(c1)CCc1cccnc1C2=C1CCNCC1 [desloratadine, descarboethoxyloratadine] here?
A: The value was “independent of dose”.

Q: Which “alcohol-induced rosacea flushing (AIRF)” value [9] does the source give for C=CCN1CC[C@]23c4c5ccc(O)c4O[C@H]2C(=O)CC[C@@]3(O)[C@H]1C5 [naloxone] here?
A: Its value is “blocked”.

Q: What about the “impairment by ethanol (typing errors)” value (ethanol intoxication; CPAF group) of the same compound?
A: Its value is “reversed this effect”.

Q: And the “impairment by ethanol (typing errors)” value (ethanol intoxication; non-flushing group)?
A: Its value is “no effect”.
